Measured values reported in US9469650B2, “Melampomagnolide B derivatives” (BOARD OF TRUSTEES OF THE UNIVERSITY OF ARKANSAS, priority 2013, dated 2016).

Key:
[1] = test system: SK-MEL-2; assay: panel of 60 human tumor cell lines, growth inhibition (Melanoma); conditions: Homo sapiens
[2] = test system: HT29; assay: panel of 60 human tumor cell lines, growth inhibition (Colon Cancer); conditions: for Percent Growth: HT29
[3] = test system: UACC-257; assay: panel of 60 human tumor cell lines, growth inhibition (Melanoma)
[4] = test system: MDA-MB-468; assay: panel of 60 human tumor cell lines, growth inhibition (Breast Cancer); conditions: Homo sapiens
[5] = test system: TK-10; assay: panel of 60 human tumor cell lines, growth inhibition (Renal Cancer); conditions: Homo sapiens; for GI50: TK-10, TK-10
[6] = test system: CCRF-CEM; assay: panel of 60 human tumor cell lines, growth inhibition (Leukemia); conditions: Homo sapiens
[7] = test system: OVCAR-8; assay: panel of 60 human tumor cell lines, growth inhibition (Ovarian Cancer); conditions: Homo sapiens
[8] = test system: KM12; assay: panel of 60 human tumor cell lines, growth inhibition (Colon Cancer)
[9] = test system: SNB-75; assay: panel of 60 human tumor cell lines, growth inhibition (CNS Cancer); conditions: Homo sapiens
[10] = test system: SN12C; assay: panel of 60 human tumor cell lines, growth inhibition (Renal Cancer); conditions: Homo sapiens
[11] = test system: SR; assay: panel of 60 human tumor cell lines, growth inhibition (Leukemia); conditions: Homo sapiens
[12] = test system: HCT-116; assay: panel of 60 human tumor cell lines, growth inhibition (Colon Cancer); conditions: Homo sapiens; for GI50: HCT-116, HCT-116
[13] = test system: A549/ATCC; assay: panel of 60 human tumor cell lines, growth inhibition (Non-Small Cell Lung Cancer); conditions: Homo sapiens
[14] = test system: MDA-MB-231/ATCC; assay: panel of 60 human tumor cell lines, growth inhibition (Breast Cancer); conditions: Homo sapiens
[15] = test system: UACC-62; assay: panel of 60 human tumor cell lines, growth inhibition (Melanoma); conditions: Homo sapiens
[16] = test system: SK-MEL-28; assay: as above; conditions: Homo sapiens

SMILES: C=C1C(=O)O[C@H]2[C@H]1CC/C(COC(=O)Nc1n[nH]c(SC)n1)=C\CC[C@@]1(C)O[C@@H]21 [JVM 64, ((1aR,7aS,10aS,10bS,E)-1a-methyl-8-methylene-9-oxo-1a,2,3,6,7,7a,8,9,10a,10b-decahydrooxireno[2′,3′:9,10]cyclodeca[1,2-b]furan-5-yl)methyl-(5-(methylthio)-1H-1,2,4-triazol-3-yl)carbamate]
- GI50 ([1]; SK-MEL-2): 3.56 µM
- CC50 ([1]; SK-MEL-2, read-out: LC50): 62.2 µM
- IC (TGI) ([1]; SK-MEL-2, read-out: TGI): 13.1 µM
- Percent Growth ([2]; Log10 Concentration −4.0): −79%
- Percent Growth ([2]; Log10 Concentration −5.0): −11%
- Percent Growth ([2]; Log10 Concentration −6.0): 92%
- Percent Growth ([2]; Log10 Concentration −7.0): 101%
- Percent Growth ([2]; Log10 Concentration −8.0): 102%
- GI50 ([2]; Homo sapiens, HT-29): 2550 nM
- CC50 ([2]; Homo sapiens, HT-29, read-out: LC50): 37.4 µM
- IC (TGI) ([2]; Homo sapiens, HT-29, read-out: TGI): 7.77 µM
- GI50 ([3]; Homo sapiens, UACC-257): 1660 nM
- CC50 ([3]; Homo sapiens, UACC-257, read-out: LC50): 31.9 µM
- Percent Growth ([3]; UACC-257, Log10 Concentration −4.0): −80%
- Percent Growth ([3]; UACC-257, Log10 Concentration −5.0): −20%
- Percent Growth ([3]; UACC-257, Log10 Concentration −6.0): 70%
- Percent Growth ([3]; UACC-257, Log10 Concentration −7.0): 93%
- Percent Growth ([3]; UACC-257, Log10 Concentration −8.0): 102%
- TGI ([3]; UACC-257, NCI five dose): 6.02E−6
- GI50 ([4]; MDA-MB-468): 1290 nM
- CC50 ([4]; MDA-MB-468, read-out: LC50): 21.8 µM
- IC (TGI) ([4]; MDA-MB-468, read-out: TGI): 4.04 µM
- GI50 ([5]; 5-dose assay): 2510 nM
- GI50 ([5]; NCI five dose): 2510 nM
- CC50 ([5]; TK-10, read-out: LC50): 27.4 µM
- IC (TGI) ([5]; TK-10, read-out: TGI): 7.16 µM
- GI50 ([6]; 5-dose assay): 620 nM
- GI50 ([6]; NCI five dose): 626 nM
- GI50 ([6]; leukemia cell line CCRF-CEM): 620 nM
- CC50 ([6]; read-out: LC50): 55.8 µM
- IC (TGI) ([6]; read-out: TGI): 3.56 µM
- GI50 ([7]; OVCAR-8): 2710 nM
- CC50 ([7]; OVCAR-8, read-out: LC50): 51.6 µM
- IC (TGI) ([7]; OVCAR-8, read-out: TGI): 12.1 µM
- GI50 ([8]; Homo sapiens, KM12): 4.01 µM
- CC50 ([8]; Homo sapiens, KM12, read-out: LC50): 41.5 µM
- Percent Growth ([8]; KM12, Log10 Concentration −4.0): −91%
- Percent Growth ([8]; KM12, Log10 Concentration −5.0): 17%
- Percent Growth ([8]; KM12, Log10 Concentration −6.0): 101%
- Percent Growth ([8]; KM12, Log10 Concentration −7.0): 108%
- Percent Growth ([8]; KM12, Log10 Concentration −8.0): 104%
- TGI ([8]; KM12, NCI five dose): 1.43E−5
- GI50 ([9]; SNB-75): 1710 nM
- CC50 ([9]; SNB-75, read-out: LC50): 33.4 µM
- IC (TGI) ([9]; SNB-75, read-out: TGI): 10.1 µM
- GI50 [10]: 2900 nM
- CC50 ([10]; read-out: LC50): 44.6 µM
- IC (TGI) ([10]; read-out: TGI): 10.7 µM
- GI50 [11]: 2360 nM
- CC50 ([11]; read-out: LC50): > 100 µM
- IC (TGI) ([11]; read-out: TGI): 7.13 µM
- GI50 ([12]; 5-dose assay): 1130 nM
- GI50 ([12]; NCI five dose): 1130 nM
- CC50 ([12]; HCT-116, read-out: LC50): 5.86 µM
- IC (TGI) ([12]; HCT-116, read-out: TGI): 2.6 µM
- GI50 ([13]; A549): 4.19 µM
- CC50 ([13]; A549, read-out: LC50): 83.5 µM
- IC (TGI) ([13]; A549, read-out: TGI): 19.9 µM
- GI50 ([14]; MDA-MB-231): 2930 nM
- CC50 ([14]; MDA-MB-231, read-out: LC50): 37.7 µM
- IC (TGI) ([14]; MDA-MB-231, read-out: TGI): 9.22 µM
- GI50 ([15]; UACC-62): 1600 nM
- CC50 ([15]; UACC-62, read-out: LC50): 15 µM
- IC (TGI) ([15]; UACC-62, read-out: TGI): 4.35 µM
- GI50 ([16]; SK-MEL-28): 1850 nM
- CC50 ([16]; SK-MEL-28, read-out: LC50): 17.9 µM
- IC (TGI) ([16]; SK-MEL-28, read-out: TGI): 4.86 µM
